Measurements as given in PubChem BioAssay (NCI).
Where “and” joins values, the source holds several entries; their conditions need not be identical. Equal entries are not always repeated.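 In this assay, cells in 96-well plates receive the compound at five concentrations for 48 hours. Endpoints are linearly interpolated between the surrounding concentrations. GI50 = concentration required for 50% inhibition of growth. TGI denotes the concentration required for complete inhibition of growth.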

Legend:
Assay in all cases: inhibition of tumour cell growth, NCI panel, 48 h
NCI-H522 lung = test system: NCI-H522 lung
A549 NSCLC = test system: A549 NSCLC
RXF 393 renal = test system: RXF 393 renal
HOP-62 NSCLC = test system: HOP-62 NSCLC
ACHN renal = test system: ACHN renal
IGROV1 ovarian = test system: IGROV1 ovarian
U251 CNS = test system: U251 CNS
T-47D breast = test system: T-47D breast
NCI/ADR-RES ovarian = test system: NCI/ADR-RES ovarian
HS 578T breast = test system: HS 578T breast

Structure (SMILES) | TGI (NCI-H522 lung) | TGI (A549 NSCLC) | TGI (RXF 393 renal) | TGI (HOP-62 NSCLC) | TGI (ACHN renal) | TGI (IGROV1 ovarian) | TGI (U251 CNS) | TGI (T-47D breast) | TGI (NCI/ADR-RES ovarian) | GI50 (NCI-H522 lung) | GI50 (RXF 393 renal) | GI50 (ACHN renal) | GI50 (U251 CNS) | GI50 (T-47D breast) | GI50 (A549 NSCLC) | GI50 (HS 578T breast) | TGI (HS 578T breast) | GI50 (HOP-62 NSCLC) | GI50 (IGROV1 ovarian)
CCCCCCCCC(=O)NCCCNCCCNC(=O)CCCCCCCC | 18.8 µM | 29 µM | 21.7 µM | 27.9 µM | 16.1 µM | 10.6 µM | 8.92 µM | – | – | – | – | – | – | – | – | – | – | – | –
CN1C(=O)C23CC4=CC=CC(O)C4N2C(=O)C1(CO)SS3 (configuration not stated) | 0.338 µM | 0.318 µM | 0.38 µM | 0.322 µM | 0.334 µM | 0.297 µM | 0.448 µM | 0.339 µM | 0.0661 µM | – | – | – | – | – | – | – | – | – | –
Cc1ns/c(=N\C(=S)N(C)C)n1C | > 100 µM | > 100 µM | > 100 µM | > 100 µM | > 100 µM | > 100 µM | > 100 µM | – | – | – | – | – | – | – | – | – | – | – | –
O=C1c2cccc3cccc(c23)C(=O)N1CCCN1CCN(CCCN2C(=O)c3cccc4cccc(c34)C2=O)CC1 | – | > 100 µM | > 100 µM | > 100 µM | > 100 µM | > 100 µM | > 100 µM | – | – | – | – | – | – | – | – | – | – | – | –
N#CC(=C=[N-])[n+]1ccc(Cl)cc1 | 9.55 µM | > 100 µM | 31.5 µM | 83 µM | – | 36.4 µM | 29.7 µM | – | – | – | – | – | – | – | – | – | – | – | –
COC(=O)C1CCC(=NC2c3ccccc3-c3ccccc32)N1 (configuration not stated) | 58.6 µM | > 100 µM | – | > 100 µM | > 100 µM | > 100 µM | > 100 µM | – | – | – | – | – | – | – | – | – | – | – | –
O=C1c2ccccc2C(=O)c2c1ccc1c3ccccc3n(Cc3ccccc3)c21 | > 100 µM | > 100 µM | – | > 100 µM | > 100 µM | > 100 µM | – | – | – | – | – | – | – | – | – | – | – | – | –
C/C(=N/Nc1ccc([N+](=O)[O-])cc1[N+](=O)[O-])C(CC(C(=O)Nc1ccccc1C)/C(C)=N\Nc1ccc([N+](=O)[O-])cc1[N+](=O)[O-])C(=O)Nc1ccccc1C (configuration not stated) | 41.8 µM | 64.6 µM | 24.3 µM | 30.6 µM | > 49.6 µM | 32.1 µM | 14 µM | – | – | – | – | – | – | – | – | – | – | – | –
O=C1/C(=C/c2ccccc2)CN(C(=O)Oc2ccc([N+](=O)[O-])cc2)C/C1=C\c1ccccc1 | 8.54 µM and 5.13 µM | – | 4.51 µM | – | – | – | 4.2 µM and 3.31 µM | – | – | 2.15 µM | 1.59 µM | 4.94 µM | 1.56 µM | – | – | – | – | – | –
CCOC(=N)CC(=O)NC(C)c1ccccc1 (configuration not stated) | > 100 µM | > 100 µM | > 100 µM | > 100 µM | > 100 µM | > 100 µM | > 100 µM | – | – | – | – | – | – | – | – | – | – | – | –
O=C(OCc1nc2ccc(Br)cc2c(=O)n1-c1ccccc1)c1ccccc1O | > 100 µM | > 100 µM | > 100 µM | > 100 µM | > 100 µM | > 100 µM | > 100 µM | – | – | – | – | – | – | – | – | – | – | – | –
C/C(=N\NC(=S)N1CCC(C2CCN(C(=S)N/N=C(\C)c3ccccn3)CC2)CC1)c1ccccn1 | > 100 µM | > 100 µM | > 100 µM | > 100 µM | > 100 µM | > 100 µM | > 100 µM | – | – | – | – | – | – | – | – | – | – | – | –
O=C1CC2Sc3ccccc3N=C2N1c1ccc(Cl)cc1Cl (configuration not stated) | – | > 100 µM | > 100 µM | > 100 µM | > 100 µM | > 100 µM | > 100 µM | – | – | – | – | – | – | – | – | – | – | – | –
CN1c2ccccc2C(=O)Nc2cnc(Cl)nc21 | > 100 µM | > 100 µM | > 100 µM | > 100 µM | > 100 µM | > 100 µM | > 100 µM | > 100 µM | > 100 µM | – | – | – | – | – | – | – | – | – | –
CC1SC2(CCCCC2)N(NC(=O)c2[nH]c3ccc(F)cc3c2-c2ccccc2)C1=O (configuration not stated) | > 100 µM | > 100 µM | > 100 µM | 60.9 µM | > 100 µM | 97.3 µM | > 100 µM | > 100 µM | – | 54.4 µM | 28.3 µM | > 100 µM | 48.5 µM | > 100 µM | 72.3 µM | 66.8 µM | > 100 µM | 19.7 µM | 16 µM
CCCCCCCCCCCCCCCC(=O)N[C@H]1CCc2cc(OC)c(OC)c(OC)c2-c2ccc(SC)c(=O)cc21 | – | 13.1 µM and 14.4 µM | 14.8 µM | 62.6 µM and 18.2 µM | 22.4 µM and 19.7 µM | 39 µM and 10.9 µM | 8.6 µM and 9.32 µM | – | – | – | – | 3.88 µM | 2.64 µM | – | 3.63 µM | – | – | 2.13 µM | –
COC(=O)C(=O)C(C(=O)C(=O)Nc1ccccc1C(N)=O)c1nc2ccc(C(=O)c3ccccc3)cc2[nH]c1=O (configuration not stated) | 93.8 µM | > 100 µM | > 100 µM | – | > 100 µM | > 100 µM | > 100 µM | – | – | – | – | – | – | – | – | – | – | – | –
COc1ccccc1NC(=O)C(=O)C1C(=O)Nc2ccccc2S1=O (configuration not stated) | > 100 µM | > 100 µM | > 100 µM | > 100 µM | > 100 µM | > 100 µM | > 100 µM | – | – | – | – | – | – | – | – | – | – | – | –
CCN1CC2(C)CC[C@@H](OC)C34[C@@H]2[C@H](OC(C)=O)C2(OCO[C@@]25C[C@H](OC)C2C[C@]3(O)[C@@H]5[C@H]2O)[C@H]14 | > 100 µM | > 100 µM | > 100 µM | > 100 µM | – | – | > 100 µM | – | – | – | – | – | – | – | – | – | – | – | –
CCC1NCC(=O)c2c1[nH]c1ccccc21 (configuration not stated) | > 100 µM | > 100 µM | – | – | > 100 µM | > 100 µM | > 100 µM | – | – | – | – | – | – | – | – | – | – | – | –
CC(C)=C1CCC(CN2CCCC2)C1=O (configuration not stated) | – | > 100 µM | 39.5 µM | > 100 µM | 32.7 µM | > 100 µM | – | – | – | – | – | – | – | – | – | – | – | – | –
